Holding throughout (assay type): cell-based
Assay [1] addresses T1, rat brain N-type calcium channel (α1B+α2δ+β1b) (Rattus norvegicus, UniProt Q02294).
T1 construct: expressed in transfected cells
The assay can be described thus: Whole cell patch clamp block of N-type calcium channels expressed in HEK 293 cells. Particulars: step to +20 mV from holding potential −80 mV, 0.1 Hz, 5 mM barium external solution. The protocol: (§1) Antagonist activity was measured using whole cell patch recordings on human embryonic kidney cells either stably or transiently expressing rat α1B+α2b+β1b channels (N-type channels) with 5 mM barium as a charge carrier.
(§2) For transient expression, host cells, such as human embryonic kidney cells, HEK 293 (ATCC# CRL 1573) were grown in standard DMEM medium supplemented with 2 mM glutamine and 10% fetal bovine serum. HEK 293 cells were transfected by a standard calcium-phosphate-DNA coprecipitation method using the rat α1B+β1b+α2δ N-type calcium channel subunits in a vertebrate expression vector (for example, see Current Protocols in Molecular Biology).
(§3) After an incubation period of from 24 to 72 hrs the culture medium was removed and replaced with external recording solution (see below). Whole cell patch clamp experiments were performed using an Axopatch 200B amplifier (Axon Instruments, Burlingame, Calif.) linked to an IBM compatible personal computer equipped with pCLAMP software. Borosilicate glass patch pipettes (Sutter Instrument Co., Novato, Calif.) were polished (Microforge, Narishige, Japan) to a resistance of about 4 MΩ when filled with cesium methanesulfonate internal solution (composition in MM: 109 CsCH3SO4, 4 MgCl2, 9 EGTA, 9 HEPES, pH 7.2). Cells were bathed in 5 mM Ba^++ (in mM: 5 BaCl2, 1 MgCl2, 10 HEPES, 40 tetraethylammonium chloride, 10 glucose, 87.5 CsCl pH 7.2). Current data shown were elicited by a train of 100 ms test pulses at 0.066 Hz from −100 mV and/or −80 mV to various potentials (min. −20 mV, max. +30 mV). Drugs were perfused directly into the vicinity of the cells using a microperfusion system.
(§4) Normalized dose-response curves were fit (Sigmaplot 4.0, SPSS Inc., Chicago, Ill.) by the Hill equation to determine IC50 values. Steady-state inactivation curves were plotted as the normalized test pulse amplitude following 5 s inactivating prepulses at +10 mV increments. Inactivation curves were fit (Sigmaplot 4.0) with the Boltzman equation, Ipeak (normalized)=1/(1+exp((V−Vh)z/25.6)), where V and Vh are the conditioning and half inactivation potentials, respectively, and z is the slope factor.
(§5) The method of Example 1 was followed with slight modifications as will be apparent from the description below.
(§6) N-type calcium channel blocking activity was assayed in human embryonic kidney cells, HEK 293, stably transfected with the rat brain N-type calcium channel subunits (α1B+α2δ+β1b cDNA subunits). Alternatively, N-type calcium channels (α1B+α2δ+β1b cDNA subunits), L-type channels (α1C+α2δ+β1b cDNA subunits) and P/Q-type channels (α1A+α2δ+β1b cDNA subunits) were transiently expressed in HEK 293 cells. […]
(In general: The patch-clamp technique gives a direct electrical read-out from membranes.)

Assay [2] concerns rat brain N-type calcium channel (α1B+α2δ+β1b). Described as above. The settings on record: N-type, L-type and P/Q-type channels compared. The protocol:
as §1, §2, §3, §4, §5, §6

The target of assay [3] is T2, P/Q-type channels (α1A+α2δ+β1b) (Homo sapiens, UniProt O00555).
T2 construct: expressed in transfected cells; host or cells: HEK 293 (transient)
The assay can be described thus: Whole cell patch clamp block of P/Q-type calcium channels transiently expressed in HEK 293 cells. Particulars: step to +20 mV from holding potential −80 mV, 0.1 Hz, 5 mM barium external solution. How it is done: as §5
(§7) N-type calcium channel blocking activity was assayed in human embryonic kidney cells, HEK 293, stably transfected with the rat brain N-type calcium channel subunits (α1B+α2δ+β1b cDNA subunits). Alternatively, N-type calcium channels (α1B+α2δ+β1b cDNA subunits), L-type channels (α1C+α2δ+β1b cDNA subunits) and P/Q-type channels (α1A+α2δ+β1b cDNA subunits) were transiently expressed in HEK 293 cells. Briefly, cells were cultured in Dulbecco's modified eagle medium (DMEM) supplemented with 10% fetal bovine serum, 200 U/ml penicillin and 0.2 mg/ml streptomycin at 37° C. with 5% CO2. At 85% confluency cells were split with 0.25% trypsin/1 mM EDTA and plated at 10% confluency on glass coverslips. At 12 hours the medium was replaced and the cells transiently transfected using a standard calcium phosphate protocol and the appropriate calcium channel cDNAs. Fresh DMEM was supplied and the cells transferred to 28° C./ 5% CO2. Cells were incubated for 1 to 2 days to whole cell recording.
(§8) Whole cell patch clamp experiments were performed using an Axopatch 200B amplifier (Axon Instruments, Burlingame, Calif.) linked to a personal computer equipped with pCLAMP software. […] Data were analyzed using Clampfit (Axon Instruments) and SigmaPlot 4.0 (Jandel Scientific).

Assay [4] concerns the target T3, L-type channels (α1C+α2δ+β1b) (Homo sapiens, UniProt Q13936).
T3 construct: expressed in transfected cells; host or cells: HEK 293 (transient)
Put plainly: Whole cell patch clamp block of L-type calcium channels transiently expressed in HEK 293 cells. The settings on record: step to +20 mV from holding potential −80 mV, 0.1 Hz, 5 mM barium external solution. How it is done:
as §5, §7, §8

One may read the IC50 as the point on the concentration scale where inhibition reaches its midpoint.

T1 sequence (Q02294 whole entry): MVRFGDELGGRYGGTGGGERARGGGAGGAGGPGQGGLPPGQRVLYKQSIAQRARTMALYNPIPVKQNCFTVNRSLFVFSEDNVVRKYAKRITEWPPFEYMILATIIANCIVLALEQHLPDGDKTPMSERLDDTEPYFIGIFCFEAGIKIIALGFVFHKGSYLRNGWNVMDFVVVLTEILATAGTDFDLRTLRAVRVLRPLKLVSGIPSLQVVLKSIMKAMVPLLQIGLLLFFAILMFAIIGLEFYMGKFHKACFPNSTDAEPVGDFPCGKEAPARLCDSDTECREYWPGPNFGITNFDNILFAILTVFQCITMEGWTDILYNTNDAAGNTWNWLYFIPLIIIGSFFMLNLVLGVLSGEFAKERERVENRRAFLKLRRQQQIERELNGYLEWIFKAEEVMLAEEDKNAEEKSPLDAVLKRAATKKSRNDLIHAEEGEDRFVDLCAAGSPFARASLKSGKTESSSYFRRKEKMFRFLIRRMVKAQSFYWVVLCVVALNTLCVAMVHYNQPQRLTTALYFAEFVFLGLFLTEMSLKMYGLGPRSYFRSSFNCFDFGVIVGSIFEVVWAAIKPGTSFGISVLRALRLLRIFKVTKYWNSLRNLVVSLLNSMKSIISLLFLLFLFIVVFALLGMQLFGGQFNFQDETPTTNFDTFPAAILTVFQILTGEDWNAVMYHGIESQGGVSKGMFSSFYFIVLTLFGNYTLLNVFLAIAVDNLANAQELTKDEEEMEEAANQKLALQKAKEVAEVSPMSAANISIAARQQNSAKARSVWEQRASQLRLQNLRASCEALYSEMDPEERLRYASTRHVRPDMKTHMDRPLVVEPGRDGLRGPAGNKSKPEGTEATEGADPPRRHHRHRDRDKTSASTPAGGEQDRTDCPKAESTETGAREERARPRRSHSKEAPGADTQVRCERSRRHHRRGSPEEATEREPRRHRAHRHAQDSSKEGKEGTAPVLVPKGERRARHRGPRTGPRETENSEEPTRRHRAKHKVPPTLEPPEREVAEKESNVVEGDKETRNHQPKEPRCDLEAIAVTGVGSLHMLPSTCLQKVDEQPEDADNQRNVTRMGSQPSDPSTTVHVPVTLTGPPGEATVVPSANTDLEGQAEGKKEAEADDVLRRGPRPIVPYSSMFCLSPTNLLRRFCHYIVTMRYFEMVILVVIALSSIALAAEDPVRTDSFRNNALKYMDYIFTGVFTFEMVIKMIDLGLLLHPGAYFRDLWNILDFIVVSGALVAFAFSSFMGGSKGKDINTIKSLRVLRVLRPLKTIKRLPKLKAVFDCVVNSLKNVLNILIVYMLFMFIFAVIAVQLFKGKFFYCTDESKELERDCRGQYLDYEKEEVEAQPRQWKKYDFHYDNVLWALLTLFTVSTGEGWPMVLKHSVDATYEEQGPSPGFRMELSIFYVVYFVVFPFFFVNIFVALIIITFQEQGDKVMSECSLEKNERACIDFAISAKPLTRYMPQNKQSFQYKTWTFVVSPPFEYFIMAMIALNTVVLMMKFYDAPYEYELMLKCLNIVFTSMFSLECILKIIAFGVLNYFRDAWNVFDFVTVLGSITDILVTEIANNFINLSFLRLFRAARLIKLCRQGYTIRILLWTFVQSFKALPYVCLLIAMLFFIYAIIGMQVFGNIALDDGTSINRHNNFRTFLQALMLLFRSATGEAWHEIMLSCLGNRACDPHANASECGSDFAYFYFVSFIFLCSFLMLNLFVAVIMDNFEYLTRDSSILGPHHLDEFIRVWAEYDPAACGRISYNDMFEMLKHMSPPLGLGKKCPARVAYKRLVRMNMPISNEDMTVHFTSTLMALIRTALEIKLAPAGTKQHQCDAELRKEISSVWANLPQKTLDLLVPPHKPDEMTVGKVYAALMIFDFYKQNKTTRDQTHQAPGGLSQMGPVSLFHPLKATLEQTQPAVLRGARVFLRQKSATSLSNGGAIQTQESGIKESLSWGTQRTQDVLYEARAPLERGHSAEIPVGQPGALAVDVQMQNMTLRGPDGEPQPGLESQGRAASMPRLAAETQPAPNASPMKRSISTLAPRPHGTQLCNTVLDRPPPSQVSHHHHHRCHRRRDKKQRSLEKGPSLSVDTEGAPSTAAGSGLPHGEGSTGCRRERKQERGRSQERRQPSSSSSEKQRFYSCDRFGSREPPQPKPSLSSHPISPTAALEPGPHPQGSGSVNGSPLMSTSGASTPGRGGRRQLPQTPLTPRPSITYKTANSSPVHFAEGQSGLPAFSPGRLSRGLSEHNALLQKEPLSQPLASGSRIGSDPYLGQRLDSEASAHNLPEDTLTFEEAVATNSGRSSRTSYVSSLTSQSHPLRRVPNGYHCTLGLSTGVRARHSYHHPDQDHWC
T2 sequence (O00555 whole entry): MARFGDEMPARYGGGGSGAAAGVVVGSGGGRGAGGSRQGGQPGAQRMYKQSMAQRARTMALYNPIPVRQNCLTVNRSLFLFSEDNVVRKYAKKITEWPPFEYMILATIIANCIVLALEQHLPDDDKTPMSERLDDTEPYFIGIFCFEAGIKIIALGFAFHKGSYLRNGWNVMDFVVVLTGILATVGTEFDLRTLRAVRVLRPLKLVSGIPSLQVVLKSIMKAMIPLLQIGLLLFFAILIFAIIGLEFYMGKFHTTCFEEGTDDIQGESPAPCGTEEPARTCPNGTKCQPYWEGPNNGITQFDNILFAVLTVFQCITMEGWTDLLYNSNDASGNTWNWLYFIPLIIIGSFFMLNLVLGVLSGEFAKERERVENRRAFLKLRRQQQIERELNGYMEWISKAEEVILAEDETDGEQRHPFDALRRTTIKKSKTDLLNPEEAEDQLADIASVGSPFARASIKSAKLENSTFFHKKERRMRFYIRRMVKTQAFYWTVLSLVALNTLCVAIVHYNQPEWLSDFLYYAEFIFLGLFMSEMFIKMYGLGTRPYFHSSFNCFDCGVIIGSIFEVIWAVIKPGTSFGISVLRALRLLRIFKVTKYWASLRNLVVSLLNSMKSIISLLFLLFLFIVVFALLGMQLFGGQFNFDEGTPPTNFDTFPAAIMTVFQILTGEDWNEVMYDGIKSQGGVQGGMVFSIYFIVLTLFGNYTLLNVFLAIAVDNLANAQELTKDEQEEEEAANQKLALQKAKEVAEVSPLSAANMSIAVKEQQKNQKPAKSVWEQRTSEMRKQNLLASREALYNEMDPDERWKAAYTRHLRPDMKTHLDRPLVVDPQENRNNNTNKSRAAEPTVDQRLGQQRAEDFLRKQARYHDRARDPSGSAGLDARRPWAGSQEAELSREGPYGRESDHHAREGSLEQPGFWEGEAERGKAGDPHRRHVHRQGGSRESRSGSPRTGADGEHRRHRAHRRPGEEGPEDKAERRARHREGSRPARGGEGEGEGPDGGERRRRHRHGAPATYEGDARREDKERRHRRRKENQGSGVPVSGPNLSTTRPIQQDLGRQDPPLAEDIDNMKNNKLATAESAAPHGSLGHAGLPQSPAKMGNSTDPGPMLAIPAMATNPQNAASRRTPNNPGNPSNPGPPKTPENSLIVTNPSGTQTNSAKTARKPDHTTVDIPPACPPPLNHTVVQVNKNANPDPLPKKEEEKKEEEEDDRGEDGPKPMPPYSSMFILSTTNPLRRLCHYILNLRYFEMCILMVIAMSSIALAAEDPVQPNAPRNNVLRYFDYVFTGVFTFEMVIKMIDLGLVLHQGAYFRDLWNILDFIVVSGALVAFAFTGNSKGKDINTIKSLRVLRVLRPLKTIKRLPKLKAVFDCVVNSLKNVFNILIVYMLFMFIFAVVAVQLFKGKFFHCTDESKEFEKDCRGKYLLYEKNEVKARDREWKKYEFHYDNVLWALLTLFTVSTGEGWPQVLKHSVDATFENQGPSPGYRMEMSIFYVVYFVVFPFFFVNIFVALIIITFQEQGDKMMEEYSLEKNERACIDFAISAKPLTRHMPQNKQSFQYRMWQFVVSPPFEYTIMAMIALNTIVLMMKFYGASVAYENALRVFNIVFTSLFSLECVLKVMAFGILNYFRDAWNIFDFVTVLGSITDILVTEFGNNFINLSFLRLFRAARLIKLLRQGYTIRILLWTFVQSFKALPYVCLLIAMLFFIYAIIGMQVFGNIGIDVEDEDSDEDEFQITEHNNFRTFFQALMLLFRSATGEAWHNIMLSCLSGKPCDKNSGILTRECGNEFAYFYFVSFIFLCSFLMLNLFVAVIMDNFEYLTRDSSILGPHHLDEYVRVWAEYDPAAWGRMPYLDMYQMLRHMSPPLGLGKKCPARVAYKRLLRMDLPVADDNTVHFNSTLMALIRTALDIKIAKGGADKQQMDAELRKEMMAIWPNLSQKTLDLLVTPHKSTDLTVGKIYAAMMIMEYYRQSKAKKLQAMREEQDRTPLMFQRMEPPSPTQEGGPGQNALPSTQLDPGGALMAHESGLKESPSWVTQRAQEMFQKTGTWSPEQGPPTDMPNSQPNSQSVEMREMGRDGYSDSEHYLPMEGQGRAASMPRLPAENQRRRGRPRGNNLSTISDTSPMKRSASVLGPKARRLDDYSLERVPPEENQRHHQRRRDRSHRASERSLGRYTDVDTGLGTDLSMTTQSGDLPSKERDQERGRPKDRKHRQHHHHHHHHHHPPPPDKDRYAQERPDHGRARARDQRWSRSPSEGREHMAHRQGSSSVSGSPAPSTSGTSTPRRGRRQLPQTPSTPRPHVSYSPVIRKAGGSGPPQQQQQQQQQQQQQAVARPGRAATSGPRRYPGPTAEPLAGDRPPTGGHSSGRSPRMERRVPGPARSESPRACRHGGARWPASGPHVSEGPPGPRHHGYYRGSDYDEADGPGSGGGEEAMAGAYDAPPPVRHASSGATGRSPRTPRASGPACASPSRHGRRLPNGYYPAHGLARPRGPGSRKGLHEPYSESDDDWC

For `O=C(COC(c1ccc(Cl)cc1)c1ccc(Cl)cc1)Nc1ncc([N+](=O)[O-])s1` [NT051], the IC50 is 0.13 µM in assay [1], 6.8 µM in assay [3] and 1.91 µM in assay [4]. For the same molecule, the “selectivity for N-type channels versus L-type and P/Q-type (in words)” value in assay [2] was “somewhat selective for N-type channels”.
Turning to `O=C(CCOc1ccc(Cl)cc1Cl)Nc1nnc(C(F)(F)F)s1` [NT044, N-2-(5-trifluoromethyl-1,3,4-thiadiazolyl)-3-(2,4-dichlorophenoxy) propionyl amide], the 50% inhibitory concentration (IC50) turned out to be 0.14 µM in assay [1], 6.4 µM in assay [3] and 2.06 µM in assay [4]. Further, the “selectivity for N-type channels versus L-type and P/Q-type (in words)” value in assay [2] is “somewhat selective for N-type channels”.

The values above are taken from patent publication US20030199523A1, “Heterocyclic calcium in channel blockers” (priority 2002, published 2003).
